Source: a melting point compilation (Tetko et al.; mined from patent text by program, amines drawn as free bases though some values may be those of a salt)

SMILES | melting point [°C]
CCOC(=O)Nc1cc(I)c(NS(C)(=O)=O)cc1OC | 153 to 155
O[C@@H]1CCCC[C@H]1Nc1ccccc1 (relative stereo) | 57 to 58
COCCNC(=O)c1cccc(-c2ccc(F)c3cc(Cc4cc(F)cc(Cl)c4)sc23)c1 | 90 to 110
CCOC(=O)c1nn(-c2ccc(C=O)cc2)nc1C | 97 to 99
COc1cc2c(cc1Nc1ncc(Cl)c(Nc3cccc(N4CCOCC4)c3)n1)CCN(CC(=O)N(C)C)CC2 | 91 to 111
Cc1ccc(S(=O)(=O)N2CCC(NC(=O)Nc3ccc(OC(F)(F)F)cc3)CC2)cc1 | 205 to 207
CCn1ncc2c(NCc3cccnc3)c3ccccc3nc21 | 282 to 284
O=C(Nc1cccc2[nH]ccc12)c1ccccc1OCC1CO1 (stereo not drawn) | 171
CC(C)Cn1c(CCCCNC(=O)OC(C)(C)C)nc2c(N)nc3ccccc3c21 | 165 to 167
CC1C2=C(CN=C(c3ccccc3Cl)c3cc(Cl)ccc32)C(=O)N1CC(N)=O (stereo not drawn) | 221 to 222
COc1ccc(CN2C(=O)C(N)C(=O)N(CC34CC5CC(CC(C5)C3)C4)c3ccccc32)cc1 (stereo not drawn) | 223 to 225
CCN1c2ncccc2C(=O)Nc2c(C)cc(NCCO)nc21 | 241 to 244
O=C(CCC(=O)OC(=O)CCC(=O)OCc1ccccc1)OCc1ccccc1 | 70 to 71
COc1ccc(CC#N)c2c1OCCO2 | 121 to 125
Cc1c(C)c2c(c(C)c1NC(=O)CC(C)(C)C)C(c1ccc(C(C)CCO)cc1)CO2 (stereo not drawn) | 145 to 147
Cc1ccc(OS(=O)(=O)c2ccc(N3CCN(C)C3=O)cc2)c(C)c1 | 159 to 161
O=C(Nc1ccccc1[N+](=O)[O-])C12CC3CC(CC(C3)C1)C2 | 111 to 114
O=C1N(Cc2cc3cccc(F)c3o2)c2ccccc2C12COc1cc3c(cc12)CCO3 (stereo not drawn) | 192 to 193
COC(=O)CCCc1cc2cc(Cl)ccc2n1S(=O)(=O)c1ccc(F)c([N+](=O)[O-])c1 | 93
CN1CCN(Cc2nnc(-c3ccccc3)cc2-c2cccc([N+](=O)[O-])c2)CC1 | 157 to 159
CCCn1c2cc(Cl)ccc2c(=O)c2cccn21 | 107 to 108
CC12CC(N3CCOCC3)C(O)CC1CCC1C2CCC2(C)C(O)C(N3CCCCC3)CC12 (stereo not drawn) | 222 to 229
O=C1CC(c2ccccc2)Cc2[nH]ccc21 (stereo not drawn) | 187 to 189
O=C(O)CCCCNc1ccccc1-c1ccccc1 | 73 to 75

SMILES | melting point [°C]
CCc1[nH]n(C2CCCC2)c2nc(Cc3ccc(OCc4nnn[nH]4)cc3)nc(=O)c1-2 | 240 to 242
COc1ccc(-c2nccn2N=Cc2ccccc2)cc1 | 155
CN1CC(CO)C=C2c3cccc4[nH]c(Cl)c(c34)CC21 (stereo not drawn) | 207
CC(C(N)=O)c1ccc2nc(-c3ccccc3)oc2c1 (stereo not drawn) | 193
COc1c(O)cccc1C=O | 116
CCCCOc1ccccc1C(=O)C=Cc1cc(OC)cc(OC)c1 | 69.5 to 70.1
COc1ccc(COCc2nc(C(C)C)c(Sc3cc(Cl)cc(Cl)c3)n2CC(=O)c2ccccc2)cc1 | 205 to 211
COc1cccc(CNC(=O)c2nc3ccc(SC)cc3c(=O)[nH]2)c1 | 168 to 170
CC(C)Oc1cc(OC(C)C)c(C(=O)O)c(C(F)(F)F)n1 | 147 to 150
COc1nc(N)c(Cl)cc1C(=O)CCC1CCN(CC(C)(C)O)CC1 | 108
COc1ccc(CCNC(=O)C2CCCCC2)cc1OC | 110 to 111
CC1(CCC(N)=O)C(=O)CCC1=O | 159 to 162
COc1cccc(P(=O)(c2ccc(C)cc2)c2ccc(C)cc2)c1 | 96 to 98
COc1cc(Cc2nnc(N[C@H]3CC[C@H](C(C)C)CC3)c3ccccc23)ccn1 | 65 to 66
COc1ccc(C(OC(C)=O)c2cc(OCc3ccccc3)ccc2OC)nc1 (stereo not drawn) | 105 to 110
CCCCCCCCCCCCCCCCS(=O)(=O)N[C@H]1CCCNC(=O)C1 | 100 to 101
CNC(=O)COC1C(O)C(CO)OC(Oc2ccc(N)cc2)C1O (stereo not drawn) | 239
Cc1ccccc1C(=O)Nc1ccc(C(=O)N2CCCC(N(C)C)c3ccccc32)cc1O (stereo not drawn) | 202
O=C(O)CCC(=O)N1CCc2cc(S(=O)(=O)N3CCN(c4ccc(C(=O)O)cc4)CC3)ccc21 | 255 to 257
CCCSc1cc2c(c3c1OC(C)(C)C3)C(c1cccc(C(=O)O)c1)=NC(C)(C)C2 | 206 to 208
Cc1cc(COc2ccc(C(=O)NC[C@@H](C(=O)NO)N3CCN(S(C)(=O)=O)CC3)cc2)c2ccccc2n1 | 175
COc1ccc(CSc2nnc(-c3ccc4c(c3)CCO4)o2)cc1F | 121 to 122
COC(=O)C(F)(F)CC(C)C1CCC2C3CC=C4CC(OC(C)=O)CCC4(C)C3CCC12C (stereo not drawn) | 132
CC(CCCl)C(=O)Nc1scc(C(C)(C)C)c1C#N (stereo not drawn) | 115 to 116
